Entries after “also recorded” stand apart in the source; their conditions may differ. Blank lines part the entries; values can stand above or below the molecule they belong to.
Columns and labels:
Assay type in all cases: biochemical
SETD7 [1] = molecular target: T1, SETD7 (Homo sapiens, UniProt Q8WTS6); assay: Inhibition of SETD7-catalyzed methylation of 14-mer H3K4; settings: for IC50: SETD7 200 nM, 14-mer H3K4 10 µM, inhibitor 1-200 µM, 4 repeats (dose-response of H3KO4)
T1 construct: SETD7 residues 1–366; His6 (N); made in house; host or cells: Escherichia coli Rosetta BL21 (DE3)pLysS
T1 sequence (Q8WTS6 1-366): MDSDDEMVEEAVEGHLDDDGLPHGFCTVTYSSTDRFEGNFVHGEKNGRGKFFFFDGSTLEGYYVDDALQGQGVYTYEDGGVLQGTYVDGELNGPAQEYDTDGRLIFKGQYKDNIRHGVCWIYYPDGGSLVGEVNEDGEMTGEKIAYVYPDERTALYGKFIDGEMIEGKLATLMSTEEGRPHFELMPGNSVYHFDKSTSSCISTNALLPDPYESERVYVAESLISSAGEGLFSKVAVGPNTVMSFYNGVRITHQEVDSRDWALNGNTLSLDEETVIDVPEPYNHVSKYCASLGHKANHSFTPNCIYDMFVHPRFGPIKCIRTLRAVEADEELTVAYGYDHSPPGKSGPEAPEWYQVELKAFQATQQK
Protocol: Residual activity assays monitoring the KMT-catalyzed methylation of the histone peptides were then carried out, aimed at providing competitive data of these two substrates as compared to the 14-mer H3K9 peptide for the active site of G9a/GLP, and to determine whether the two lysine analogues inhibit G9a- and GLP-catalyzed methylation of H3K9.
(§1) Human KMTs enzymes were expressed and purified as previously described[36]–[38]. The methyltransferase plasmid (SETD8 residues 186–352, SETD7 residues 1–366, GLP residues 951–1235, G9a residues 913–1193) transformed into Escherichia coli Rosetta BL21 (DE3)pLysS cells. Cultures were grown at 37 °C in LB media containing kanamycin and chloramphenicol. Cells were grown to an OD600 of 0.5–0.6 (approximately 2.5–3 h), at which point they induced by isopropyl β-D-1-thiogalactopyranoside (IPTG) and they were transferred to a temperature of 16 °C overnight. After letting the cells grow at this temperature, they were then harvested and lysed by sonication. The lysate was centrifuged at high-speed to remove unbroken cells. The supernatant was then centrifuged to further clean the lysate. Purification of the N-terminally his6-tagged KMTs was performed using Ni–NTA affinity chromatography column, which was prewashed with lysis buffer. Target KMT enzyme was then eluted using a linear gradient concentration of imidazole. The elute was then concentrated with centrifugal concentrators (Millipore). All KMT enzymes were further purified by gel filtration on a Superdex 75 column (GE Healthcare) on an AKTA system. Purified proteins were concentrated employing Amicon Ultra Centrifugal Filter Units (Millipore) with suitable molecular weight cutoffs. Proteins concentrations were determined using the Nanodrop DeNovix DS-11 spectrophotometer and the purity was monitored by SDS-PAGE on a 4–15% gradient polyacrylamide gel (Bio-Rad).
Supplementary Figure 19. […] Error bars represent the standard deviation from 4 repeats.

SETD7 [2] = molecular target: T1, SETD7; assay: MALDI-TOF MS methylation assay with SETD7
Protocol: Histone peptides bearing the lysine analogues KO and KN were examined as substrates for the recombinantly expressed human KMTs using MALDI-TOF MS assays as a direct method to monitor histone methylation. We tested whether KO and KN can be methylated by di- and trimethyltransferases GLP and G9a, and monomethyltransferases SETD7 and SETD8. Samples containing the human KMT enzyme (2 µM), histone peptide (100 µM), and SAM (500 µM with GLP and G9a; 200 µM with SETD8 and SETD7) in Tris buffer (50 mM, pH 8.0) were incubated for 1 h at 37 °C. Following established enzymatic conditions[17]–[19],[21],[22], all lysine-containing histone peptides were efficiently methylated by the four KMTs (Fig. 5a,d,g,j, respectively). […] In the G9a assay, traces (< 5%) of the dimethylated species H3KO9me2 were also observed. […] We further analyzed the product distribution of these two peptide substrates with G9a and GLP throughout the time course of methylation.
Red spectra show 1 h reactions at 37 °C including KMTs (2 µM), histone peptide (100 µM) and SAM (500 µM for GLP/G9a and 200 µM for SETD8/SED7) and black spectra the no-enzyme controls.
The lack of methylation of these two analogues with SETD7 indicated a selectivity between KMTs.
as §1
Histone methyltransferase assay was carried out as described in 30 µL final total volume[17]–[19],[21],[22]. In brief, purified KMTs enzymes (2 µM of each enzyme per each reaction) were incubated with 100 µM of purified histone peptides in the methyltransferase assay buffer Tris–HCl (pH 8.0) and methyl donor SAM (500 µM with GLP and G9a; 200 µM with SETD8 and SETD7) for 1 h at 37 °C. 3 µL of reaction mixture was quenched with an equal amount of MeOH (1:1 ratio). Then, 3 µL of this mixture was added to an equal amount volume of a standard α-cyano-4-hydroxycinnamic acid matrix solution for spotting on a MALDI plate (Stainless ground steel 96/12 Bruker-Daltonik, Bremen-Germany). The mass spectra of peptides were analyzed by MALDI-TOF MS. […]

GLP [3] = molecular target: T2, GLP (Homo sapiens, UniProt Q9H9B1); assay: Residual activity / inhibition of GLP-catalyzed methylation of H3K9; settings: GLP 100 nM; 14-mer H3K9 5 µM; analogue 100 µM
T2 construct: GLP residues 951–1235; His6 (N); made in house; host or cells: Escherichia coli Rosetta BL21 (DE3)pLysS
T2 sequence (Q9H9B1 982-1266): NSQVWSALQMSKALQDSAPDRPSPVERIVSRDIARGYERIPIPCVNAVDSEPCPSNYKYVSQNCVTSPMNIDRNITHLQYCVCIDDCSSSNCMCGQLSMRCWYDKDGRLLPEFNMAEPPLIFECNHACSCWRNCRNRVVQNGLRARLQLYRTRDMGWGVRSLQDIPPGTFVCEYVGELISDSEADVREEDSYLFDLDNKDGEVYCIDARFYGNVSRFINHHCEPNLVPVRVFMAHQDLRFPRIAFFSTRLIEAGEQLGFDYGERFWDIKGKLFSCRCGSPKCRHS
Protocol: as §1, with “system.” for “system. Purified proteins were concentrated employing Amicon Ultra Centrifugal Filter Units (Millipore) with suitable molecular weight cutoffs. Proteins concentrations were determined using the Nanodrop DeNovix DS-11 spectrophotometer and the purity was monitored by SDS-PAGE on a 4–15% gradient polyacrylamide gel (Bio-Rad).”

GLP [4] = molecular target: T2, GLP; assay: MALDI-TOF MS methylation assay with GLP; settings: GLP 2 µM, peptide 100 µM, SAM 500 µM, Tris 50 mM, pH 8.0, 1 h at 37 °C
Protocol: as §1, with “system.” for “system. Purified proteins were concentrated employing Amicon Ultra Centrifugal Filter Units (Millipore) with suitable molecular weight cutoffs. Proteins concentrations were determined using the Nanodrop DeNovix DS-11 spectrophotometer and the purity was monitored by SDS-PAGE on a 4–15% gradient polyacrylamide gel (Bio-Rad).”

G9a [5] = molecular target: T3, G9a (Homo sapiens, UniProt Q96KQ7); assay: MALDI-TOF MS methylation assay with G9a; settings: G9a 2 µM, peptide 100 µM, SAM 500 µM, Tris 50 mM, pH 8.0, 1 h at 37 °C
T3 construct: G9a residues 913–1193; His6 (N); made in house; host or cells: Escherichia coli Rosetta BL21 (DE3)pLysS
T3 sequence (Q96KQ7 913-1193): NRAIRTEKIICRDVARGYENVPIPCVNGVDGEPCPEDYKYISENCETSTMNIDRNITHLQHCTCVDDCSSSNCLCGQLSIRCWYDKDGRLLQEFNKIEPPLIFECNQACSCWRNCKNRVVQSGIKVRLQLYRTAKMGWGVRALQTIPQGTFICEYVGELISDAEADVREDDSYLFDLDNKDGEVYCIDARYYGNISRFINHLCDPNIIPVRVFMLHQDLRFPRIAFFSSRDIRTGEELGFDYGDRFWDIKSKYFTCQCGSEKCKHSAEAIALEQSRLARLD
Protocol: as §1, with “system.” for “system. Purified proteins were concentrated employing Amicon Ultra Centrifugal Filter Units (Millipore) with suitable molecular weight cutoffs. Proteins concentrations were determined using the Nanodrop DeNovix DS-11 spectrophotometer and the purity was monitored by SDS-PAGE on a 4–15% gradient polyacrylamide gel (Bio-Rad).”

GLP [6] = molecular target: T2, GLP; assay: NMR analysis of GLP-catalyzed methylation; settings: GLP 8 µM; peptide 400 µM; SAM 2 mM; Tris-d11 buffer pD 8.0; 1 h at 37 °C; 1H NMR and 1H-13C HSQC
Protocol: as §1, with “system.” for “system. Purified proteins were concentrated employing Amicon Ultra Centrifugal Filter Units (Millipore) with suitable molecular weight cutoffs. Proteins concentrations were determined using the Nanodrop DeNovix DS-11 spectrophotometer and the purity was monitored by SDS-PAGE on a 4–15% gradient polyacrylamide gel (Bio-Rad).”

G9a [7] = molecular target: T3, G9a; assay: Residual activity / inhibition of G9a-catalyzed methylation of H3K9; settings: G9a 100 nM; 14-mer H3K9 5 µM; analogue 100 µM
Protocol: as §1, with “system.” for “system. Purified proteins were concentrated employing Amicon Ultra Centrifugal Filter Units (Millipore) with suitable molecular weight cutoffs. Proteins concentrations were determined using the Nanodrop DeNovix DS-11 spectrophotometer and the purity was monitored by SDS-PAGE on a 4–15% gradient polyacrylamide gel (Bio-Rad).”

SETD8 = molecular target: T4, SETD8 (Homo sapiens, UniProt Q9NQR1); assay: SETD8 kinetics by MALDI-TOF MS enzymatic assay
T4 construct: SETD8 residues 186–352; His6 (N); made in house; host or cells: Escherichia coli Rosetta BL21 (DE3)pLysS
T4 sequence (Q9NQR1 186-352 isoform Q9NQR1-2): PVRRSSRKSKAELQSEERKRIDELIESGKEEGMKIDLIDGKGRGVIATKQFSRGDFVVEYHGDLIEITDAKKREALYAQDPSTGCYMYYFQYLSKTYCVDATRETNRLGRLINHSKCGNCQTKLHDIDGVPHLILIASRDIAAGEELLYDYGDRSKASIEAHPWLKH
Protocol: To determine the substrate specificity of SETD8 towards the two histone peptides bearing the unnatural lysine analogues KO and KN, a kinetic investigation was carried out employing a MALDI-TOF MS enzymatic assay[17],[18],[21]. KMT-catalyzed methylation of the oxalysine- and azalysine-containing histone peptides was characterized by slower substrate conversion rates (kcat) compared to their respective natural sequences, a result that we attribute to their poorer nucleophilic character due to the electron-withdrawing properties of the O and NH moieties. Furthermore, a highly hydrophobic channel of the methyltransferases is poorly tailored for significant electrostatic changes in the hydrophobic nature of the lysine side chain, likely leading to a larger penalty for desolvation of γ-azalysine and γ-oxalysine. Combined with the altered Km values for H4KO20 and H4KN20, this translated into a generally slightly worse catalytic efficiency for these two lysine analogues.
as §1
Kinetics studies were performed as described[17],[18],[21]. A solution of histone peptide (0–300 μM), was added to a solution of SAM (116 μM) in assay buffer (50 mM Tris, pH 8.0) at room temperature (final volume of 100 μL). […]

[8] = SETD7 2 µM, peptide 100 µM, SAM 200 µM, Tris 50 mM, pH 8.0, 1 h at 37 °C
[9] = SETD8 2 µM, peptide 0–300 μM, SAM 116 μM, 50 mM Tris, pH 8.0, room temperature, 10 min, MALDI-TOF MS, value ± SD, replicates

inhibition of SETD7 in words (SETD7 [1]; 14-mer H3K4 substrate): inactive
IC50 (SETD7 [1]): > 100 µM
monomethylated species (traces) with SETD7 (SETD7 [2]; [8]): < 5%
methylation with SETD7 at high concentration, 1 h (SETD7 [2]; SETD7 10 µM, SAM 1 mM, 37 °C, 1 h): poorly catalyzed traces
Molecule: C[C@H](N)C(=O)N[C@@H](CCCNC(=N)N)C(=O)N[C@H](C(=O)N[C@@H](CNCCN)C(=O)N[C@@H](CCC(N)=O)C(=O)N[C@H](C(=O)N[C@@H](C)C(=O)N[C@@H](CCCNC(=N)N)C(=O)N[C@@H](CCCCN)C(=O)N[C@@H](CO)C(=O)N[C@H](C(=O)NCC(=O)NCC(=O)N[C@@H](CCCCN)C(=O)N[C@@H](C)C(N)=O)[C@@H](C)O)[C@@H](C)O)[C@@H](C)O [H3KN4]
methylation with SETD7 (SETD7 [2]; [8]): very low levels of methylation were detected; also recorded: significantly reduced
methylation with SETD7 at high concentration, 3 h (SETD7 [2]; SETD7 10 µM, SAM 1 mM, 37 °C, 3 h): poorly catalyzed traces; also recorded: only traces of H3KO4me and H3KN4me observed

IC50 (SETD7 [1]): 38.9 µM
monomethylated species (traces) with SETD7 (SETD7 [2]; [8]): < 5%
Molecule: C[C@H](N)C(=O)N[C@@H](CCCNC(=N)N)C(=O)N[C@H](C(=O)N[C@@H](COCCN)C(=O)N[C@@H](CCC(N)=O)C(=O)N[C@H](C(=O)N[C@@H](C)C(=O)N[C@@H](CCCNC(=N)N)C(=O)N[C@@H](CCCCN)C(=O)N[C@@H](CO)C(=O)N[C@H](C(=O)NCC(=O)NCC(=O)N[C@@H](CCCCN)C(=O)N[C@@H](C)C(N)=O)[C@@H](C)O)[C@@H](C)O)[C@@H](C)O [H3KO4]

methylation products with GLP (GLP [4]): complete trimethylation
methylation products with G9a (G9a [5]): complete trimethylation
methylation observed by NMR (GLP [6]): resulted in a signal of H3K9me3
Molecule: ARTKQTARK^9STGGKA [H3K9, native histone peptide, N-terminal 15-residues of H3]
inhibition of GLP in words (GLP [3]): outcompetes H3KO9 and H3KN9 peptides for binding in the active site of G9a/GLP
inhibition of G9a in words (G9a [7]): outcompetes H3KO9 and H3KN9 peptides for binding in the active site of G9a/GLP

Molecule: GGAKRHRK^20VLRDNIQ [H4K20, native peptide fragment 13–27 of H4]
kcat/Km (SETD8; SETD8 2 µM, peptide 0–300 μM, SAM 116 μM, 50 mM Tris, pH 8.0, room temperature, 10 min, MALDI-TOF MS): 86.8 M⁻¹ s⁻¹
Km (SETD8; [9]): 104 ± 25.3 µM
kcat (SETD8; [9]): 0.009 ± 0.00183 s⁻¹
order in which SETD8 tolerates modifications at the γ position (kinetics) (SETD8; comparison of kinetics data including H4KC20 of ref 18): H4K20 > H4KC20 > H4KN20 > H4KO20
